Results from ChEMBL document CHEMBL1159082, “Phenylacetic acid regioisomers possessing a N-difluoromethyl-1,2-dihydropyrid-2-one pharmacophore: evaluation as dual inhibitors of cyclooxygenases and 5-lipoxygenase with anti-inflammatory activity” (Bioorg Med Chem Lett, 2010).

How the values were obtained:
[1] = Inhibition of potato 5-Lipoxygenase by enzyme immuno assay; design: species or system Solanum tuberosum
Rattus norvegicus [2] = assay: Antiinflammatory activity against carrageenan-induced paw edema in rat at 100 mg/kg, po; format: functional
[3] = biological target: T1, Prostaglandin G/H synthase 2 (Homo sapiens, UniProt P35354); assay: Inhibition of human recombinant COX2 by enzyme immuno assay
T1 sequence (P35354 whole entry): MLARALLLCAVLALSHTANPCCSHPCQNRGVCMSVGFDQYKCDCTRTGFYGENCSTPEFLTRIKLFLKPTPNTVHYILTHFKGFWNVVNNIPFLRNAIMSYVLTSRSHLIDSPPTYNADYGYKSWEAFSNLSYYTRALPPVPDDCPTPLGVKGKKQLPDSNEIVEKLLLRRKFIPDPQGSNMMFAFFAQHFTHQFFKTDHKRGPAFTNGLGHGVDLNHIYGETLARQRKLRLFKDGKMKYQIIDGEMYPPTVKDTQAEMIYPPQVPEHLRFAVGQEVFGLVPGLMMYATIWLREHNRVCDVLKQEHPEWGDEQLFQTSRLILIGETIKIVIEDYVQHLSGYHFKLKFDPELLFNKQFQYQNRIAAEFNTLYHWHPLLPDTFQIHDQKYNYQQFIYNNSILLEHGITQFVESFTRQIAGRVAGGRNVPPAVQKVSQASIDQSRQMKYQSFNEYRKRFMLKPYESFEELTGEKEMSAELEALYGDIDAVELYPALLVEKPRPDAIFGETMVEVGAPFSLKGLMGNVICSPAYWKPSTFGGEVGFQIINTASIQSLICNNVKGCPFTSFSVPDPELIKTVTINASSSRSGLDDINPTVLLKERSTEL

[4] = biological target: T2, Prostaglandin G/H synthase 1 (Ovis aries, UniProt P05979)
T2 sequence (P05979 whole entry): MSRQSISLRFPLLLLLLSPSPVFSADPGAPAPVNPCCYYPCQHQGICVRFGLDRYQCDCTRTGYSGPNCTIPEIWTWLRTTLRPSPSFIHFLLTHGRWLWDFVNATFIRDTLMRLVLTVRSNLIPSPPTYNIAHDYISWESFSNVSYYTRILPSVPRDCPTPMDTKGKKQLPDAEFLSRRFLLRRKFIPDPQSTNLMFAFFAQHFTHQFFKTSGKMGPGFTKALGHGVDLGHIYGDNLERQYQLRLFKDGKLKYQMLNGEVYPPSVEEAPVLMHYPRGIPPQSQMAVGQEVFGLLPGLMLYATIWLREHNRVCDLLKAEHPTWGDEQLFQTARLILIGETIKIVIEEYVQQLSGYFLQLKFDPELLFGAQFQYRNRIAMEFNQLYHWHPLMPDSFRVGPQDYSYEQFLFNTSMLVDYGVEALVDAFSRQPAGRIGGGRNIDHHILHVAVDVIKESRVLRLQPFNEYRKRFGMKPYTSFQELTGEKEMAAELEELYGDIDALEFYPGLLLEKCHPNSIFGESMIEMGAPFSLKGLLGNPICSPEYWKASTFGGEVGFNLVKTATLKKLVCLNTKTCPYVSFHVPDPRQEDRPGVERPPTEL
Description: Inhibition of ovine COX1 by enzyme immuno assay

Rattus norvegicus [5] = assay: Antiinflammatory activity against carrageenan-induced paw edema in rat at 30 mg/kg, po; format: functional
Rattus norvegicus [6] = assay: Antiinflammatory activity against carrageenan-induced paw edema in rat at 150 mg/kg, po relative to ibuprofen; format: functional
Rattus norvegicus [7] = assay: Antiinflammatory activity against carrageenan-induced paw edema in rat at 150 mg/kg, ip; format: functional; conditions: route intraperitoneal
Rattus norvegicus [8] = assay: Antiinflammatory activity against carrageenan-induced paw edema in po dosed rat; format: functional

| SMILES | IC50 [1] | IC50 [3] | IC50 [4] | further results |
| --- | --- | --- | --- | --- |
| O=C(O)/C=C/c1ccc(O)c(O)c1 [CAFFEIC ACID] | 4000 nM |  |  | inhibition in vivo at 30 mg/kg (Rattus norvegicus [5]): 8.2% |
| O=C(O)Cc1ccccc1-c1ccn(C(F)F)c(=O)c1 | 200 nM | 860 nM | 5.5 µM | inhibition in vivo at 150 mg/kg (Rattus norvegicus [6]): 19.9%; inhibition in vivo at 150 mg/kg (Rattus norvegicus [7]): 18.5% |
| CC(C(=O)O)c1ccccc1-c1ccn(C(F)F)c(=O)c1 (configuration not stated) | 2000 nM | 2600 nM | > 100 µM |  |
| CC(Cc1ccc(O)c(O)c1)C(C)Cc1ccc(O)c(O)c1 (configuration not stated) [NORDIHYDROGUAIARETIC ACID] |  |  |  | inhibition in vivo at 30 mg/kg (Rattus norvegicus [5]): 15.1% |
| CC(C)Cc1ccc(C(C)C(=O)O)cc1 (configuration not stated) [IBUPROFEN] |  |  |  | ED50 (Rattus norvegicus [8]): 67.4 mg/kg |

Further lines, with some results ahead:

| IC50 [1] | IC50 [3] | IC50 [4] | SMILES | further results |
| --- | --- | --- | --- | --- |
| 370 nM | 11100 nM | > 100 µM | O=C(O)Cc1cccc(-c2ccn(C(F)F)c(=O)c2)c1 | inhibition in vivo at 100 mg/kg (Rattus norvegicus [2]): 11.2% |
| 3470 nM | 890 nM | 9.6 µM | O=C(O)Cc1ccc(-c2ccn(C(F)F)c(=O)c2)cc1 |  |
| 3000 nM | 2400 nM | 15.3 µM | CC(C(=O)O)c1ccc(-c2ccn(C(F)F)c(=O)c2)cc1 (configuration not stated) |  |
